# Experimental data: ChEMBL document CHEMBL6109170, “Integrated Advancements in Neuroplasticity, Psychedelic Therapeutics, and AI-Driven Innovations for Precision Medicine” (ACS Med Chem Lett, 2025)
# pKi: −log10 of the molar value.
# Biological target: 5-hydroxytryptamine receptor 2A (Homo sapiens, UniProt P28223)
# Assay: Binding affinity to 5-HT2A receptor (unknown origin) assessed as inhibition constant by radioligand binding assay
# Sequence of 5-hydroxytryptamine receptor 2A (P28223 whole entry): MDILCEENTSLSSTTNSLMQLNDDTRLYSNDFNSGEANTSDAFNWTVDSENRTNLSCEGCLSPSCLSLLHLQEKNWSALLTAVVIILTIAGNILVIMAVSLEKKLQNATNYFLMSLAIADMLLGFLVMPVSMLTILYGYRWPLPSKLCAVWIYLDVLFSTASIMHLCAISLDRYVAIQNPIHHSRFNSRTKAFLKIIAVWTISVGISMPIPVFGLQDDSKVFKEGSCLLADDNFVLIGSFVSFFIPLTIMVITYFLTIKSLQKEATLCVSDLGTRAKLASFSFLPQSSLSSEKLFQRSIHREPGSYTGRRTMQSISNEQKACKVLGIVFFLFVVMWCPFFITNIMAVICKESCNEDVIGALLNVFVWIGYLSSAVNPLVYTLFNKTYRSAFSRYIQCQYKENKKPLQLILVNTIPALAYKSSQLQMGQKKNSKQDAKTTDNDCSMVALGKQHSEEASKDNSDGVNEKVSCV
row,Compound,pKi
1,CC(C)N(CCc1c(Br)[nH]c2ccccc12)C(C)C,< 5.00

# Biological target: T1, 5-hydroxytryptamine receptor 1A (Homo sapiens, UniProt P08908)
# T1 sequence (P08908 whole entry): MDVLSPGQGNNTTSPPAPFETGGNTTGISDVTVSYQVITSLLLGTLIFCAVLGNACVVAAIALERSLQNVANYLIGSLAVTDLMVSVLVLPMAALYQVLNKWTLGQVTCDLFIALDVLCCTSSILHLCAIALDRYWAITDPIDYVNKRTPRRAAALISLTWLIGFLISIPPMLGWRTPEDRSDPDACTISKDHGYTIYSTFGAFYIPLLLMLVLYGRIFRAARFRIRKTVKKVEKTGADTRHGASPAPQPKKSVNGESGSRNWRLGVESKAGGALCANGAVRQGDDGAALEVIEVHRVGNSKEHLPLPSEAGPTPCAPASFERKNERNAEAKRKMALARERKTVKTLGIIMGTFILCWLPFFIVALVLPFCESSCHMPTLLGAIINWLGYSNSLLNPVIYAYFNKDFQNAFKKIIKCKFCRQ
# Assay: Binding affinity to 5HT1A receptor (unknown origin) assessed as inhibition constant by radioligand binding assay
row,Compound,pKi
1,CC(=O)Oc1cccc2[nH]cc(CCN(C)C)c12,< 5.00
2,CN(C)CCc1c(Cl)[nH]c2ccccc12,< 5.00
3,CC(=O)Oc1cccc2[nH]c(Br)c(CCN(C)C)c12,< 5.00
4,CC(C)N(CCc1c(Br)[nH]c2ccccc12)C(C)C,< 5.00
5,CC(=O)Nc1cccc2[nH]cc(CCN(C)C)c12,< 5.00
